From patent EP2045247B1, “Compounds for the inhibition of histone deacetylase” (NatureWise Biotech & Medicals Corporation, priority 2007, dated 2009)

Key:
rat C6 glioma cells [1] = experiment: Inhibition of growth of rat C6 glioma cells (observation and cell counting); format: cell-based; conditions: 2.5, 5 and 10 µg/mL, 48 hours; cell density and cell counting (Fig. 1)
Method: The cancer cell line, rat C6 glioma cells, was cultured in Dulbecco's modified Eagle's medium (DMEM; Gibco) supplemented with penicillin G, streptomycin sulphate, 0.5 mM of L-glutamine and 10% fetal bovine serum (FBS; Gibco) at 37 °C, 5% CO2 and 95% relative humidity. For all experiments, the cells were seeded at a density of 3×10^5 per well in 6-well plates. After 24 hours, the cells were treated with different concentrations of the compound NBM-HD-1 (i.e., the compound of formula III depicted herein). After 48 hours, the cells were observed and counted. According to the results shown in Fig. 1, NBM-HD-1 can arrest the growth of rat C6 glioma cells. After the C6 glioma cells were incubated with 2.5 µg/mL (see Fig. 1(A)-b), 5 µg/mL (see Fig. 1(A)-c) and 10 µg/mL (see Fig. 1(A)-d) of NBM-HD-1 for 48 hours, the density of the cells reduced dramatically in comparison with that of control (see Fig. 1(A)-a).

rat C6 glioma cells [2] = experiment: RT-PCR of cell cycle regulator mRNA in C6 glioma cells; format: cell-based; conditions: GAPDH internal control (Fig. 3)
Method: For the rat C6 glioma cells, the cell cycle related to mRNA expression was examined by RT-PCR. The total RNAs were isolated from the treated C6 cells by using the RNeasy Mini Kit (Qiagen) according to the manufacturer's instructions. The cDNAs were produced from 500ng of total RNAs using ReverTra-Plus-TM (TOYOBO). The RT product (1µl) was amplified by PCR with primers to analyze several genes of cell cycle by using GAPDH as an internal control. According to the results of Fig. 3, NBM-HD-1 can modulate the expression of some cell cycle regulators. […] On the contrary, the expression of p21 was increased.

GFAP = GFAP expression in C6 glioma cells (immuno-fluorescent staining and RT-PCR), differentiation marker; format: cell-based, rat
Method: After the C6 glioma cells were incubated with 10 µg/mL NBM-HD-1 for 24 hours, they were fixed and analyzed by the traditional immuno-fluorescent staining method. Staining of glia was carried out by using glial-specific GFAP antibody (SIGMA) as the primary antibody and a fluorescence labeled rabbit immuno-globulin (SIGMA) as the secondary antibody to bind with the primary antibody. The cells which are GFAP-positive were excited by a specific light source to emit fluorescence. Also, the nuclei were stained with DAPI. […] In contrast with the control group, more GFAP proteins were detected in the photos of the cells being treated with 10 µg/mL of NBM-HD-1.
The GFAP mRNA expression was examined by RT-PCR.

[3] = system: breast cancer MCF-7 cells; experiment: Inhibition of growth and change of morphology of MCF-7 cells; format: cell-based, human
Method: The breast cancer MCF-7 cells, were cultured in Dulbecco's modified Eagle's medium (DMEM; Gibco) supplemented with penicillin G, streptomycin sulphate, 0.5 mM of L-glutamine and 10% fetal bovine serum (FBS; Gibco) at 37 °C, 5% CO2 and 95% relative humidity. The cells were seeded at a density of 3×10^5 per well of 6-well plates. After 24 hours, the cells were treated with different concentrations of compound NBM-HD-1 and 4mM sodium butyrate being used as the positive control. The cells were observed after 48 hours and counted after 96 hours. […] In Fig. 8(A), after the cells were incubated with 2.5 µg/mL (Fig. 8(A)-b), 5 µg/mL (Fig. 8(A)-c) and 10 µg/mL (Fig. 8(A)-d) of NBM-HD-1 for 48 hours, the density of MCF-7 cells reduced dramatically in comparison with that of the control group (Fig. 8(A)-a). The morphology of the MCF-7 cells in the experimental group changed in comparison with that in the control group. […] The results of the cell counting (FIG. 8(B)) indicate that, similar to sodium butyrate, NBM-HD-1 inhibits cell growth.
MCF-7 cancer cells were seeded at a density of 3×10^5 per well in 6-well plates. After 24 hours, the cells were treated with different concentrations of compound NBM-HD-2 and 4mM sodium butyrate being used as the positive control. The cells were observed and counted after 72 hours. […] In Fig. 13(A), after the cells were incubated with 2.5 µg/mL (Fig. 13(A)-c), 5 µg/mL (Fig. 13(A)-d), 7.5 µg/mL (Fig. 13(A)-e) and 10 µg/mL (Fig. 13(A)-f) of NBM-HD-2 for 72 hours, the density of MCF-7 cells reduced dramatically in comparison with that of the control group (Fig. 13(A)-a). The morphology of the MCF-7 cells in the experimental group changed in comparison with that in the control group.
MCF-7 cancer cells were seeded at a density of 3×10^5 per well of 6-well plates. After 24 hours, the cells were treated with different concentrations of compound NBM-HD-3 and 4mM sodium butyrate, which was being used as the positive control. The cells were observed and counted after 72 hours. […] In Fig. 14(A), after the cells were incubated with 2.5 µg/mL (Fig. 14(A)-c), 5 µg/mL (Fig. 14(A)-d), 7.5 µg/mL (Fig. 14(A)-e) and 10 µg/mL (Fig. 14(A)-f) of NBM-HD-3 for 72 hours, the density of MCF-7 cells reduced dramatically in comparison with that of the control group (Fig. 14(A)-a). The morphology of the MCF-7 cells in the experimental group changed in comparison with that in the control group. […] The results of the cell counting (FIG. 14(B)) indicate that, similar to sodium butyrate, NBM-HD-3 inhibits cell growth.

p21 = experiment: RT-PCR of p21 mRNA in MCF-7 cells; format: cell-based, human; conditions: different doses, 24 hours (Fig. 10)
Method: The cell cycle related to p21 mRNA expression was examined by RT-PCR. The total RNAs were isolated from the treated MCF-7 cells and used in the RT reaction. cDNA (1µl) was used as a template to amplify p21 gene by PCR. GAPDH was used as an internal control. […] In this experiment, MCF-7 cells were treated with different doses of NBM-HD-1 for 24 hours.

## COc1cc2c(c(OC)c1CCC(C)(C)O)C(=O)C[C@@H](c1ccc(OC)c(OC)c1C/C=C(\C)CCCC(C)(C)O)O2 [NBM-HD-1]
Rat C6 glioma cells [1]
  growth of C6 glioma cells: can inhibit the growth of C6 glioma cells in a dose-dependent manner
Rat C6 glioma cells [2]
  expression of cyclinB1: decrease the expression of cyclinD1 and cyclinB1 in a dose-dependent manner
  expression of cyclinD1: decrease the expression of cyclinD1 and cyclinB1 in a dose-dependent manner
  expression of p21: increased
GFAP; 10 µg/mL, 24 hours (Fig. 4(A))
  GFAP expression (immuno-fluorescent staining): can induce the GFAP expression of C6 glioma cancer cells
GFAP; RT-PCR (Fig. 4(B))
  GFAP mRNA expression: increased in a dose-dependent manner
[3]; 2.5, 5 and 10 µg/mL, 48 hours (Fig. 8(A))
  morphology of MCF-7 cells: change their morphology
[3]; NBM-HD-1 2.5, 5 and 10 µg/mL, sodium butyrate 4mM, observed after 48 hours, counted after 96 hours (Fig. 8)
  growth of MCF-7 cancer cells: can inhibit the growth of MCF-7 cancer cells in a dose-dependent manner
p21
  p21 mRNA expression: induced the expression of p21 in a dose-dependent manner
